Experiments:
rgRSV224 virus = test: Antiviral activity: inhibition of rgRSV224 (GFP-expressing RSV) replication in HeLa cells, GFP expression read-out; type: cell-based, respiratory syncytial virus (RSV); conditions: human respiratory syncytial virus, HeLa, read-out: RSV HELA pEC50, rgRSV224 virus (MOI=1) in HeLa cells, GFP read-out (converted)
Procedure: (§1) Black 384-well clear-bottom microtiter plates (Corning, Amsterdam, The Netherlands) were filled via acoustic drop ejection using the echo liquid handler (Labcyte, Sunnyvale, Calif.). 200 nL of compound stock solutions (100% DMSO) were transferred to the assay plates. 9 serial 4-fold dilutions of compound were made, creating per quadrant the same compound concentration. The assay was initiated by adding 10 μL of culture medium to each well (RPMI medium without phenol red, 10% FBS-heat inactivated, 0.04% gentamycin (50 mg/mL). All addition steps are done by using a multidrop dispenser (Thermo Scientific, Erembodegem, Belgium). Next, rgRSV224 virus (MOI=1) diluted in culture medium was added to the plates. rgRSV224 virus is an engineered virus that includes an additional GFP gene (Hallak LK, Spillmann D, Collins PL, Peeples Me. Glycosaminoglycan sulfation requirements for respiratory syncytial virus infection; Journal of virology (2000), 74(22), 10508-13) and was in-licensed from the NIH (Bethesda, Md., USA). Finally, 20 μL of a HeLa cell suspension (3,000 cells/well) were plated. Medium, virus- and mock-infected controls were included in each test. The wells contain 0.05% DMSO per volume. Cells were incubated at 37° C. in a 5% CO2 atmosphere. Three days post-virus exposure, viral replication was quantified by measuring GFP expression in the cells by an in house developed MSM laser microscope (Tibotec, Beerse, Belgium). The EC50 was defined as the 50% inhibitory concentration for GFP expression. In parallel, compounds were incubated for three days in a set of white 384-well microtiter plates (Corning) and the cytotoxicity of compounds in HeLa cells was determined by measuring the ATP content of the cells using the ATPlite kit (Perkin Elmer, Zaventem, Belgium) according to the manufacturer's instructions. The CC50 was defined as the 50% concentration for cytotoxicity.

[1] = Cytotoxicity in HeLa cells, ATP content measured with the ATPlite kit; type: cell-based; conditions: human, TOX HELA pCC50
Procedure: as §1

## CC1CCCCCN1C(=O)c1cc(N2CCCC2)n2nc(-c3ccc(NC(=O)C4CC4)cc3)cc2n1 (centres unmarked) [Compound E17]
rgRSV224 virus
  EC50: 0.513 µM
[1]
  CC50 at 3 days: > 50.1 µM
other
  melting point: 282 to 284 °C

## CCc1cc(C(=O)N2CCc3c([nH]c4ccccc34)C2C)nc2cc(-c3ccc(C(N)=O)cc3F)nn12 (centres unmarked) [Compound I38]
rgRSV224 virus
  EC50: 1.78 µM
[1]
  CC50 at 3 days: > 25.1 µM
other
  melting point: 205 to 210 °C

## CCc1cc(C(=O)N2CCCCCC2C)nc2cc(-c3ccc(NC(=O)C4CC4)cc3)nn12 (centres unmarked) [Compound E14]
rgRSV224 virus
  EC50: 0.309 µM
[1]
  CC50 at 3 days: > 50.1 µM
other
  melting point: 265 to 270 °C

## C[C@@H]1CCCCCN1C(=O)c1cc(C2CCC2)n2nc(-c3ccc(C4C[C@H]4C(=O)O)cc3F)cc2n1 (mixture of isomers) [Compound O11]
rgRSV224 virus
  EC50: 0.0302 µM
[1]
  CC50 at 3 days: 47.9 µM
other
  melting point: 249.19 °C

## CCc1cc(C(=O)N2CCCCC[C@H]2C)nc2cc(-c3ccc(N4CCC(C)(C(=O)O)C4)cc3F)nn12 (some centres unmarked) [Compound W17]
rgRSV224 virus
  EC50: 0.0219 µM
[1]
  CC50 at 3 days: 58.9 µM
other
  melting point: 172.28 °C

## CCc1cc(C(=O)N2CCCCC[C@H]2C)nc2nc(-c3cccs3)nn12 (racemic) [Compound S1]
rgRSV224 virus
  EC50: 0.832 µM
[1]
  CC50 at 3 days: > 100 µM
other
  melting point: 162 to 163 °C

## CCc1cc(C(=O)N2CCCCCC2C)nc2cc(-c3ccc(-c4cnn(C)c4)cc3F)nn12 (centres unmarked) [Compound F9]
rgRSV224 virus
  EC50: 0.661 µM
[1]
  CC50 at 3 days: > 25.1 µM
other
  melting point: 65 to 67 °C

## CC1c2ccsc2CCN1C(=O)c1cc(C2CC2)n2nc(-c3ccc(C4C[C@H]4C(=O)O)cc3F)cc2n1 (single isomer, unassigned) [Compound O20]
rgRSV224 virus
  EC50: 0.00813 µM
[1]
  CC50 at 3 days: 52.5 µM
other
  melting point: 252.97 °C

## CCc1cc(C(=O)N2CCCCCC2C)nc2cc(-c3ccc(NC(=S)NC4CC4)cc3F)nn12 (centres unmarked) [Compound B14]
rgRSV224 virus
  EC50: 0.437 µM
[1]
  CC50 at 3 days: > 25.1 µM
other
  melting point: 220 to 222 °C

## CCc1cc(C(=O)N2CCCCCC2C)nc2cc(-c3ccc(NC(=O)Nc4cccc(F)c4)cc3)nn12 (centres unmarked) [Compound B6]
rgRSV224 virus
  EC50: 0.741 µM
[1]
  CC50 at 3 days: > 100 µM
other
  melting point: 260 to 265 °C

## CC1CCCCCN1C(=O)c1cc(N(C)C)n2nc(-c3ccc(C(N)=O)cc3F)cc2n1 (centres unmarked) [Compound I30]
rgRSV224 virus
  EC50: 0.24 µM
[1]
  CC50 at 3 days: > 25.1 µM
other
  melting point: 215 to 216 °C

## CCc1cc(C(=O)N2CCCCCN2C)nc2cc(-c3ccc(-n4cc(C(=O)O)cn4)cc3F)nn12 [Compound W32]
rgRSV224 virus
  EC50: 0.219 µM
[1]
  CC50 at 3 days: > 100 µM
other
  melting point: 268.79 °C

## C[C@@H]1CCCCCN1C(=O)c1cc(C2(C)CC2)n2nc(-c3ccc(OCC(=O)O)cc3F)cc2n1 (racemic) [Compound F48]
rgRSV224 virus
  EC50: 0.437 µM
[1]
  CC50 at 3 days: > 100 µM
other
  melting point: 204.93 °C

## CCc1cc(C(=O)N2CCCCCC2C)nc2cc(-c3ccccc3F)nn12 (centres unmarked) [Compound A4]
rgRSV224 virus
  EC50: 1.02 µM
[1]
  CC50 at 3 days: 45.7 µM
other
  melting point: 120 to 125 °C

## CCc1cc(C(=O)N2CCCCCC2C)nc2cc(-c3ccc4c(c3)ncn4C)nn12 (centres unmarked) [Compound A14]
rgRSV224 virus
  EC50: 0.398 µM
[1]
  CC50 at 3 days: > 25.1 µM
other
  melting point: 115 °C

## CCc1cc(C(=O)N2CCCCCC2C)nc2cc(-c3cccs3)nn12 (centres unmarked) [Compound A1]
rgRSV224 virus
  EC50: 5.01 µM
[1]
  CC50 at 3 days: > 50.1 µM
other
  melting point: 110 to 120 °C

## CCCC(=O)Nc1ccc(-c2cc3nc(C(=O)N4CCCCCC4C)cc(CC)n3n2)cc1 (centres unmarked) [Compound E20]
rgRSV224 virus
  EC50: 0.692 µM
[1]
  CC50 at 3 days: > 25.1 µM
other
  melting point: 268 to 270 °C

## CCc1cc(C(=O)N2CCCCCC2C)nc2cc(-c3ccc(N4C(=O)CCC4=O)cc3F)nn12 (centres unmarked) [Compound E26]
rgRSV224 virus
  EC50: 0.407 µM
[1]
  CC50 at 3 days: > 25.1 µM
other
  melting point: 190 to 195 °C

## CCc1cc(C(=O)N2CCCCCC2C)nc2cc(-c3ccc(C(=O)NC4CC4)cc3F)nn12 (centres unmarked) [Compound L1]
rgRSV224 virus
  EC50: 0.129 µM
[1]
  CC50 at 3 days: > 25.1 µM
other
  melting point: 196 °C

## CCc1cc(C(=O)N2CCCCCCC2C)nc2cc(-c3ccc(NS(C)(=O)=O)cc3F)nn12 (centres unmarked) [Compound D3]
rgRSV224 virus
  EC50: 0.145 µM
[1]
  CC50 at 3 days: > 25.1 µM
other
  melting point: 195 to 200 °C

## CCc1cc(C(=O)N2CCCCCC2C)nc2cc(-c3ccc(S(N)(=O)=O)cc3F)nn12 (centres unmarked) [Compound P2]
rgRSV224 virus
  EC50: 0.646 µM
[1]
  CC50 at 3 days: > 25.1 µM
other
  melting point: 229 °C

## CCc1cc(C(=O)N2CCCCCC2C)nc2cc(-c3ccc4nc(C)ccc4c3)nn12 (centres unmarked) [Compound A12]
rgRSV224 virus
  EC50: 0.871 µM
[1]
  CC50 at 3 days: > 25.1 µM
other
  melting point: 195 to 200 °C

## CCc1cc(C(=O)N2CCCC3(CC=CC3)C2C)nc2cc(-c3ccc(/C=C/C(=O)O)cc3F)nn12 (racemic) [Compound M35]
rgRSV224 virus
  EC50: 0.2 µM
[1]
  CC50 at 3 days: 42.7 µM
other
  melting point: 206.72 °C

## CCc1cc(C(=O)N2CCCCCC2C)nc2cc(-c3ccc4[nH]ccc4c3)nn12 (centres unmarked) [Compound A7]
rgRSV224 virus
  EC50: 0.589 µM
[1]
  CC50 at 3 days: > 25.1 µM
other
  melting point: 195 to 197 °C

## CCc1cc(C(=O)N2CCCCCN2C)nc2cc(-c3ccc(C4C[C@H]4C(=O)O)cc3F)nn12 (mixture of isomers) [Compound O12]
rgRSV224 virus
  EC50: 0.174 µM
[1]
  CC50 at 3 days: > 100 µM
other
  melting point: 204.71 °C

## CCc1cc(C(=O)N2CCCCCC2C)nc2cc(-c3ccc(/C=C/C(N)=O)cc3F)nn12 (centres unmarked) [Compound N1]
rgRSV224 virus
  EC50: 0.129 µM
[1]
  CC50 at 3 days: > 25.1 µM
other
  melting point: 140 to 145 °C

## CCc1cc(C(=O)N2CCCCCC2C)nc2cc(-c3ccc4ncccc4c3)nn12 (centres unmarked) [Compound A11]
rgRSV224 virus
  EC50: 0.646 µM
[1]
  CC50 at 3 days: > 25.1 µM
other
  melting point: 170 to 175 °C

## CCc1cc(C(=O)N2CCCCCC2C)nc2cc(-c3ccc(C(=O)NCCNC(C)=O)cc3F)nn12 (centres unmarked) [Compound L4]
rgRSV224 virus
  EC50: 0.234 µM
[1]
  CC50 at 3 days: > 25.1 µM
other
  melting point: 174 °C

## CCc1cc(C(=O)N2CCCCCC2C)nc2cc(-c3ccc(C(=O)NO)cc3F)nn12 (centres unmarked) [Compound L6]
rgRSV224 virus
  EC50: 0.148 µM
[1]
  CC50 at 3 days: 20.4 µM
other
  melting point: 180 °C

## CCc1cc(C(=O)N2CCC3=C(CCCC3)C2C)nc2cc(-c3cccc(/C=C/C(=O)O)c3F)nn12 (racemic) [Compound M51]
rgRSV224 virus
  EC50: 0.162 µM
[1]
  CC50 at 3 days: 66.1 µM
other
  melting point: 227.14 °C

## CCc1cc(C(=O)N2CCCCCC2C)nc2c(F)c(-c3ccc(C(N)=O)cc3F)nn12 (centres unmarked) [Compound J1]
rgRSV224 virus
  EC50: 0.148 µM
[1]
  CC50 at 3 days: > 25.1 µM
other
  melting point: 173 °C

## CCc1cc(C(=O)N2CCCCCC2C)nc2cc(-c3ccc(-c4nc(C)c(C(=O)O)s4)cc3F)nn12 (centres unmarked) [Compound F18]
rgRSV224 virus
  EC50: 0.2 µM
[1]
  CC50 at 3 days: > 25.1 µM
other
  melting point: 165 to 170 °C

## CNc1cc(C(=O)N2CCCCCC2C)nc2cc(-c3ccc(C(N)=O)cc3F)nn12 (centres unmarked) [Compound I29]
rgRSV224 virus
  EC50: 0.295 µM
[1]
  CC50 at 3 days: > 25.1 µM
other
  melting point: 179 to 181 °C

## CCc1cc(C(=O)N2CCn3cccc3C2C)nc2cc(-c3ccc(C(=O)O)cc3F)nn12 (centres unmarked) [Compound K9]
rgRSV224 virus
  EC50: 0.525 µM
[1]
  CC50 at 3 days: > 25.1 µM
other
  melting point: 155 to 160 °C

## CC1c2ccsc2CCN1C(=O)c1cc(C2(C)CC2)n2nc(-c3ccc(-c4ccc(C(=O)O)cn4)cc3F)cc2n1 (racemic) [Compound F68]
rgRSV224 virus
  EC50: 0.0437 µM
[1]
  CC50 at 3 days: 51.3 µM
other
  melting point: 203.36 °C

## C[C@@H]1c2ccccc2CCN1C(=O)c1cc(C2CC2)n2nc(-c3cccc(/C=C/C(=O)O)c3F)cc2n1 [Compound M27]
rgRSV224 virus
  EC50: 0.0117 µM
other
  melting point: 202.04 °C

— US11084826B2, “RSV antiviral pyrazolo- and triazolo-pyrimidine compounds” (Janssen Sciences Ireland Unlimited Company, priority 2015, dated 2021)
